Reference: ChEMBL document CHEMBL5113513, “Selective Inhibitors of Medium-Size S1' Pocket Matrix Metalloproteinases: A Stepping Stone of Future Drug Discovery” (J Med Chem, 2022)
One block for each compound: values may come before it.

Experiments:
[1] = target: T1, Interstitial collagenase (Homo sapiens, UniProt P03956); assay: Inhibition of MMP-1 (unknown origin)
T1 sequence (P03956 whole entry): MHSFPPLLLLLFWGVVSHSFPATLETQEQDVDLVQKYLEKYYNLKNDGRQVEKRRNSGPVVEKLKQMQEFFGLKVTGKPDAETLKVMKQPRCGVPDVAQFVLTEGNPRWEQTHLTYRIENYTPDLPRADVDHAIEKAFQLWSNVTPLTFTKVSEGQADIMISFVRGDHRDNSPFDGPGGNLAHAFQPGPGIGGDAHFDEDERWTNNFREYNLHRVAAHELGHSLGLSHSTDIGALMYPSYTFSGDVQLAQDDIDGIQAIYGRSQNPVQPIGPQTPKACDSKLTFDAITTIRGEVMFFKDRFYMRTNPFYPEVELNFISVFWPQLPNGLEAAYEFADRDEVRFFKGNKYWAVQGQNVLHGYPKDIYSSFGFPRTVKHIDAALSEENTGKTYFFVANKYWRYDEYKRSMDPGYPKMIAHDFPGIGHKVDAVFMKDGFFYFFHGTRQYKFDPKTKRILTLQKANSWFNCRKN

[2] = target: T2, Stromelysin-1 (Homo sapiens, UniProt P08254); assay: Inhibition of MMP-3 (unknown origin)
T2 sequence (P08254 whole entry): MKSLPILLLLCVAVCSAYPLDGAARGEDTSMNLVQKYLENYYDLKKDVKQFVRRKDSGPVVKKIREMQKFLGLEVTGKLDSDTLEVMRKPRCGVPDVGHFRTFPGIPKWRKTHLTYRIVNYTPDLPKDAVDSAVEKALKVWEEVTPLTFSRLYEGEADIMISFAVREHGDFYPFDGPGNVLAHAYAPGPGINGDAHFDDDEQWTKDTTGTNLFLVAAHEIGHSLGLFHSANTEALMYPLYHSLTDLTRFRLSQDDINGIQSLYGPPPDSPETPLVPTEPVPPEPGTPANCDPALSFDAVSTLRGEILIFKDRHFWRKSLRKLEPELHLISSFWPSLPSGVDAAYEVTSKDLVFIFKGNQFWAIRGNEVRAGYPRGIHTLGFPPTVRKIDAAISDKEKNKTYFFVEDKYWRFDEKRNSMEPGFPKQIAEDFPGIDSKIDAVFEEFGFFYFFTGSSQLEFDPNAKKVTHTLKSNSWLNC

[3] = target: T3, Matrilysin (Homo sapiens, UniProt P09237); assay: Inhibition of MMP-7 (unknown origin)
T3 sequence (P09237 whole entry): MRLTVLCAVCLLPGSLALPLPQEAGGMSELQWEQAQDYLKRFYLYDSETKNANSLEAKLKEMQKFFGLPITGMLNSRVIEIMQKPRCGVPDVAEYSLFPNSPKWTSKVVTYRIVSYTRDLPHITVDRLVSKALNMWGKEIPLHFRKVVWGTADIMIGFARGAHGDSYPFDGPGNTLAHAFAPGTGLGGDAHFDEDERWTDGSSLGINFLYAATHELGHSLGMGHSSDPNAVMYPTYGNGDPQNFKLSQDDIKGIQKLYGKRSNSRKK

[4] = target: T4, Neutrophil collagenase (Homo sapiens, UniProt P22894); assay: Inhibition of MMP-8 (unknown origin)
T4 sequence (P22894 whole entry): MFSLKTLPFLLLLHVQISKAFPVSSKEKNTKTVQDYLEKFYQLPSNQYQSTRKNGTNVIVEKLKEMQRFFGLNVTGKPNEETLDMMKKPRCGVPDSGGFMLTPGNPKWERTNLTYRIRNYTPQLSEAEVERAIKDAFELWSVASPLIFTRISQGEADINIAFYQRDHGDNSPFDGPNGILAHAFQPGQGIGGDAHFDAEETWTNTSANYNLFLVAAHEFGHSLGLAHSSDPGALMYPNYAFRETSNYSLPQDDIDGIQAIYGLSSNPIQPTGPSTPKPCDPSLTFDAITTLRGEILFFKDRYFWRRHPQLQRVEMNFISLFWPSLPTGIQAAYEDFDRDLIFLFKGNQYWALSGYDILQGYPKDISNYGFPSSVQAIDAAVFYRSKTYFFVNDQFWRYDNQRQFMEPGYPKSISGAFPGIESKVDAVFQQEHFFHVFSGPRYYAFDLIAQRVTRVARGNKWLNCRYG

[5] = target: Macrophage metalloelastase (Homo sapiens, UniProt P39900); assay: Inhibition of MMP-12 (unknown origin)
Chain of Macrophage metalloelastase (P39900 whole entry): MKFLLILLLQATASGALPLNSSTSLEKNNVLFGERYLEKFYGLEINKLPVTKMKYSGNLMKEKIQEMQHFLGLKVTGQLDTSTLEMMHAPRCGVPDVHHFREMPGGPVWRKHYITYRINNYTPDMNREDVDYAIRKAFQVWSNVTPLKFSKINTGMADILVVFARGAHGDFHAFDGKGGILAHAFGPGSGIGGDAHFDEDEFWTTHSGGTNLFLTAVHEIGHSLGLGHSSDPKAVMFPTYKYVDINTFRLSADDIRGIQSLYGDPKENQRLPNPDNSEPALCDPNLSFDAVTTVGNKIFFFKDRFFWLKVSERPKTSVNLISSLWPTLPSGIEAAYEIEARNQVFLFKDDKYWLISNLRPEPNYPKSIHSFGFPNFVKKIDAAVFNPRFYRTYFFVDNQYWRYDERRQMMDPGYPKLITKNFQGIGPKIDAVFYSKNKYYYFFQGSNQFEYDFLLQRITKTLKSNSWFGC

[6] = target: T5, Collagenase 3 (Homo sapiens, UniProt P45452)
Description: Inhibition of MMP-13 (unknown origin)

[7] = target: T6, Matrix metalloproteinase-14 (Homo sapiens, UniProt P50281); assay: Inhibition of MMP-14 (unknown origin)
[8] = target: T7, 72 kDa type IV collagenase (Homo sapiens, UniProt P08253); assay: Inhibition of MMP-2 (unknown origin) catalytic activity using Ac-PLG-[2-mercapto-4-methylpentanoyl]-LG-OC2H5 as substrate and measured upto 30 mins by microplate reader analysis
T7 sequence (P08253 whole entry): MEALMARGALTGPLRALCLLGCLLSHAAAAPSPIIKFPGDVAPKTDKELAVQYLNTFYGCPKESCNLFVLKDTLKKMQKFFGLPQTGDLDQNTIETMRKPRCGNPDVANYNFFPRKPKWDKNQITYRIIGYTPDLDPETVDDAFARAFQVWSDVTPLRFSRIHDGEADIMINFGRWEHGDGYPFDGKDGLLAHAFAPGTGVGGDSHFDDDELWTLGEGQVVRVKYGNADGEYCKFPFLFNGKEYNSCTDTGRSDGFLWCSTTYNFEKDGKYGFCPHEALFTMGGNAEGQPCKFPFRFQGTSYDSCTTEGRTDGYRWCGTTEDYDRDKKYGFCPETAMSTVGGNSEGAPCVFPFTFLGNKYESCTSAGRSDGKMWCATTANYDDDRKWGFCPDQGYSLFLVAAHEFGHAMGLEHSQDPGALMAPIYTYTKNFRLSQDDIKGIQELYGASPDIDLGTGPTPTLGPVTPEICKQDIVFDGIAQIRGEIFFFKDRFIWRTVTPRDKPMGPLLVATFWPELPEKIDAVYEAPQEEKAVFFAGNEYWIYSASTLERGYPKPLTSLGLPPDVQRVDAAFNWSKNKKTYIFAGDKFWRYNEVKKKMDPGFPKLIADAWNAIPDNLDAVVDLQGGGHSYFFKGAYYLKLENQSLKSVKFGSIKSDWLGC

[9] = target: T8, Matrix metalloproteinase-9 (Homo sapiens, UniProt P14780); assay: Inhibition of MMP-9 (unknown origin) catalytic activity using Ac-PLG-[2-mercapto-4-methylpentanoyl]-LG-OC2H5 as substrate and measured upto 30 mins by microplate reader analysis
T8 sequence (P14780 whole entry): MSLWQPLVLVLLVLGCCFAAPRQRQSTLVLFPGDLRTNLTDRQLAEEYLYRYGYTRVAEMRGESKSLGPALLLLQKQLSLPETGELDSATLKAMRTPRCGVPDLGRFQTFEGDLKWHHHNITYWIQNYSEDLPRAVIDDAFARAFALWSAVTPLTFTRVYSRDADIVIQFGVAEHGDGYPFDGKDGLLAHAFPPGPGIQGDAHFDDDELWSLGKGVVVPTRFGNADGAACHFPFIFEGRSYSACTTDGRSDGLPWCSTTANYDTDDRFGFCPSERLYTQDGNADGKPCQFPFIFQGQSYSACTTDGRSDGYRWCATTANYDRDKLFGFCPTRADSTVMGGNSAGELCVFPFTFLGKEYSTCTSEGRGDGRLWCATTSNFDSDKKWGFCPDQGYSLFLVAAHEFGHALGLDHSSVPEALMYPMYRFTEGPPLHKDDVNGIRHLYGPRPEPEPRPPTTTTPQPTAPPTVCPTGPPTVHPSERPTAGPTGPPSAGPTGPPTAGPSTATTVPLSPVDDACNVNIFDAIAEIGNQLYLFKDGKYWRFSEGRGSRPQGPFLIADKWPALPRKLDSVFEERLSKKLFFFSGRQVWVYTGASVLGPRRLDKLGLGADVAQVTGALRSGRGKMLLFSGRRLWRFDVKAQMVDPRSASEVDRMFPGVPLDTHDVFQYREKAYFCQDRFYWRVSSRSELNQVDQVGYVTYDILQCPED

[10] = target: T9, Stromelysin-2 (Homo sapiens, UniProt P09238); assay: Inhibition of MMP-10 (unknown origin)
T9 sequence (P09238 whole entry): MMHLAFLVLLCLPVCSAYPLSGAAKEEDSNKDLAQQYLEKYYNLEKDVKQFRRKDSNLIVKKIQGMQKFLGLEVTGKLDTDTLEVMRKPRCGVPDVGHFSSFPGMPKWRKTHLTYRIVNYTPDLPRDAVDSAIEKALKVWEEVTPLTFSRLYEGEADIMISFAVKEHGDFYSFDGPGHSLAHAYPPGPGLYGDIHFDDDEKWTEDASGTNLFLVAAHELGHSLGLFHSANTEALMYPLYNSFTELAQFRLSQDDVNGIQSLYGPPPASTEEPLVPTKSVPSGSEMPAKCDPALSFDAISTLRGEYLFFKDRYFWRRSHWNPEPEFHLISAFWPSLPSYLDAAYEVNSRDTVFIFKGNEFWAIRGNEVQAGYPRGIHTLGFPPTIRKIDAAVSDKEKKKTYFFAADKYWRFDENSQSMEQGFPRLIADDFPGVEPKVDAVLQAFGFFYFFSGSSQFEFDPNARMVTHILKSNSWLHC

[11] = target: T7, 72 kDa type IV collagenase
[12] = target: T8, Matrix metalloproteinase-9; assay: Inhibition of MMP-9 (unknown origin)
[13] = target: T1, Interstitial collagenase; assay: Inhibition of human MMP-1 expressed in Escherichia coli BL21(DE3) using Mca-Pro-Leu-Gly-Leu-Dpa-Ala-Arg-NH2 as substrate preincubated for 30 mins followed by susbstrate addition by photon-counter spectrophotometer analysis
[14] = target: T7, 72 kDa type IV collagenase; assay: Inhibition of human MMP-2 expressed in Escherichia coli BL21(DE3) using Mca-Pro-Leu-Gly-Leu-Dpa-Ala-Arg-NH2 as substrate preincubated for 30 mins followed by susbstrate addition by photon-counter spectrophotometer analysis
[15] = target: T2, Stromelysin-1; assay: Inhibition of human MMP-3 expressed in Escherichia coli BL21(DE3) using Mca-Pro-Leu-Gly-Leu-Dpa-Ala-Arg-NH2 as substrate preincubated for 30 mins followed by susbstrate addition by photon-counter spectrophotometer analysis
[16] = target: T3, Matrilysin; assay: Inhibition of human MMP-7 expressed in Escherichia coli BL21(DE3) using Mca-Pro-Leu-Gly-Leu-Dpa-Ala-Arg-NH2 as substrate preincubated for 30 mins followed by susbstrate addition by photon-counter spectrophotometer analysis
[17] = target: T4, Neutrophil collagenase; assay: Inhibition of human MMP-8 expressed in Escherichia coli BL21(DE3) using Mca-Pro-Leu-Gly-Leu-Dpa-Ala-Arg-NH2 as substrate preincubated for 30 mins followed by susbstrate addition by photon-counter spectrophotometer analysis
[18] = target: T8, Matrix metalloproteinase-9; assay: Inhibition of human MMP-9 expressed in Escherichia coli BL21(DE3) using Mca-Pro-Leu-Gly-Leu-Dpa-Ala-Arg-NH2 as substrate preincubated for 30 mins followed by susbstrate addition by photon-counter spectrophotometer analysis
[19] = target: T9, Stromelysin-2; assay: Inhibition of human MMP-10 expressed in Escherichia coli BL21(DE3) using Mca-Pro-Leu-Gly-Leu-Dpa-Ala-Arg-NH2 as substrate preincubated for 30 mins followed by susbstrate addition by photon-counter spectrophotometer analysis
[20] = target: T5, Collagenase 3; assay: Inhibition of human MMP-13 expressed in Escherichia coli BL21(DE3) using Mca-Pro-Leu-Gly-Leu-Dpa-Ala-Arg-NH2 as substrate preincubated for 30 mins followed by susbstrate addition by photon-counter spectrophotometer analysis
[21] = target: T6, Matrix metalloproteinase-14; assay: Inhibition of human MMP-14 expressed in Escherichia coli BL21(DE3) using Mca-Pro-Leu-Gly-Leu-Dpa-Ala-Arg-NH2 as substrate preincubated for 30 mins followed by susbstrate addition by photon-counter spectrophotometer analysis
[22] = target: T7, 72 kDa type IV collagenase; assay: Inhibition of MMP-2 (unknown origin) using Mca-Pro-Leu-Gly-Leu-Dpa-Ala-Arg-NH2 as substrate by fluorimetric assay
[23] = target: T8, Matrix metalloproteinase-9; assay: Inhibition of MMP-9 (unknown origin) using Mca-Pro-Leu-Gly-Leu-Dpa-Ala-Arg-NH2 as substrate by fluorimetric assay
[24] = target: T4, Neutrophil collagenase; assay: Inhibition of recombinant human MMP-8 for 3 hrs using colorimetric substrate by ELISA
[25] = system: HT-1080; assay: Inhibition of cell invasion in human HT-1080 cells for 24 hrs by Calcein AM staining based fluorometric analysis; type: functional; conditions: HT-1080, 24 h

Compound: C=CC[C@H](C(=O)NO)C(CC(C)C)C(=O)N[C@@H](Cc1ccccc1)C(=O)NC (stereo not given in full)
- IC50 [1]: 10 nM
- Ki [1]: 8 nM
- IC50 [11]: 5 nM
- Ki [11]: 4 nM
- IC50 [2]: 30 nM
- Ki [2]: 30 nM
- IC50 [3]: 30 nM
- Ki [3]: 60 nM
- IC50 [4]: 3 nM
- Ki [4]: 3 nM
- IC50 [12]: 3 nM
- Ki [12]: 3 nM
- Ki [5]: 5 nM
- Ki [6]: 7 nM
- Ki [7]: 10 nM

Compound: NC(=O)[C@H](CCC(=O)O)NC(=O)[C@@H](CCC(=O)O)NC(=O)CCc1ccc(-c2ccccc2)cc1
- Ki [13]: > 100000 nM
- Ki [14]: 445 nM
- Ki [15]: 6700 nM
- Ki [16]: 24700 nM
- Ki [17]: 226 nM
- Ki [18]: 1090 nM
- Ki [19]: 1110 nM
- Ki [20]: 689 nM
- Ki [21]: 5900 nM

Compound: O=C(C[C@@H](CSc1ccccc1)C(=O)O)c1ccc(-c2ccc(Cl)cc2)cc1
- Ki [1]: > 5000 nM
- Ki [11]: 11 nM
- Ki [12]: 301 nM
- Ki [6]: 147000 nM

Compound: COc1ccc(S(=O)(=O)N(Cc2ccccc2)[C@@H](C(=O)NO)C(C)C)cc1
- IC50 [2]: 13 nM
- IC50 [5]: 7.7 nM

Compound: O=C(NC1CCC1)P(=O)(O)O [(CYCLOBUTYLAMINO)CARBONYLPHOSPHONIC ACID]
- IC50 [24]: 4 nM

Compound: C[C@H]1c2cccc(O)c2C(=O)C2=C(O)[C@]3(O)C(=O)C(C(N)=O)=C(O)[C@@H](N(C)C)[C@@H]3[C@@H](O)[C@@H]21 [DOXYCYCLINE]
- IC50 [1]: > 400000 nM
- IC50 [11]: 56000 nM
- IC50 [2]: 32000 nM
- IC50 [3]: 28000 nM
- IC50 [4]: 26000 nM
- IC50 [6]: 20000 nM
- IC50 [25]: 21400 nM

Compound: CN(C)c1ccc(O)c2c1C[C@H]1C[C@H]3[C@H](N(C)C)C(O)=C(C(N)=O)C(=O)[C@@]3(O)C(O)=C1C2=O [MINOCYCLINE]
- IC50 [2]: 290000 nM
- IC50 [3]: 125000 nM
- IC50 [12]: 180000 nM

Compound: CO[C@H](C(=O)NO)[C@@H](CC(C)C)C(=O)N[C@H](C(=O)Nc1ccccn1)C(C)(C)C [SOLIMASTAT]
- IC50 [11]: 80 nM
- IC50 [3]: 5 nM
- IC50 [12]: 70 nM

The next lines start with the values.

- IC50 [1]: > 10000 nM
- IC50 [2]: 50 nM
- IC50 [3]: > 500 nM
- IC50 [4]: > 500 nM
- IC50 [5]: 3.8 nM
- IC50 [6]: < 5 nM
- IC50 [7]: 556 nM
- IC50 [8]: 1.3 nM
- IC50 [9]: 5.54 nM
- IC50 [10]: 181 nM
Compound: O=C(NO)C(Cc1ccccc1)NS(=O)(=O)c1ccc(-c2cn(-c3ccc(-c4ccccc4)cc3)nn2)cc1 (stereo not given)

- IC50 [22]: 5 nM
- IC50 [23]: 800 nM
Compound: O=C(NCCCCC(NS(=O)(=O)c1ccc(-c2ccc(Cl)cc2)cc1)C(=O)O)OCc1ccccc1 (stereo not given)

- IC50 [1]: > 1000 nM
- IC50 [2]: 17.2 nM
- IC50 [3]: > 100 nM
- IC50 [4]: > 100 nM
- IC50 [5]: 3.2 nM
- IC50 [6]: 0.9 nM
- IC50 [7]: 65 nM
- IC50 [8]: 1.4 nM
- IC50 [9]: 98 nM
- IC50 [10]: 51 nM
Compound: O=C(NO)C1(S(=O)(=O)c2ccc(-n3cc(-c4ccc(-c5ccccc5)cc4)nn3)cc2)CCOCC1

- IC50 [1]: > 1000 nM
- IC50 [2]: 9.6 nM
- IC50 [3]: 70 nM
- IC50 [4]: 6.1 nM
- IC50 [5]: 1.2 nM
- IC50 [6]: 1.4 nM
- IC50 [7]: 8.2 nM
- IC50 [8]: 0.3 nM
- IC50 [9]: 11.3 nM
- IC50 [10]: 7.8 nM
Compound: COc1ccc(-c2cn(-c3ccc(S(=O)(=O)C4(C(=O)NO)CCOCC4)cc3)nn2)cc1

- IC50 [22]: 900 nM
- IC50 [23]: 40000 nM
Compound: NCCCCC(NS(=O)(=O)c1ccc(-c2ccccc2)cc1)C(=O)O (stereo not given)

- IC50 [12]: 1.19 nM
Compound: CCNC(=O)CCC(NS(=O)(=O)c1ccc(-c2ccccc2)cc1)C(=O)O (stereo not given)

- IC50 [12]: 3.57 nM
Compound: NC(=O)CCC(NS(=O)(=O)c1ccc(-c2ccccc2)cc1)C(=O)O (stereo not given)
